The nature of series [1]: Moisture balance / vapor sorption (hygroscopicity). The settings on record: vapor sorption, 5% to 95% relative humidity. In kind it is physicochemical. As for the experimental part:
Moisture balance data was collected using a VTI SGA 100 or SGA CX symmetrical vapor sorption analyzer. Relative humidity was varied in increments or 5%, starting at 5% relative humidity thereby increasing to 95% relative humidity, and then undergoing a drying cycle back to 5% relative humidity. Equilibrium criteria was set at 0.01% weight change in 1 minute with a max equilibrium time of 180 minutes. Approximately 1-15 mg of sample was used.

A short description of series [2]: Thermal stability characteristics. The class given is physicochemical. As for the experimental part: The thermal properties of AMG151 samples were characterized using a DSC Q1000 or DSC Q 100, TA Instruments, differential scanning calorimetry, and a TGA Q 500, TA Instruments, thermogravimetric analyzer. Data analysis was performed utilizing Universal Analysis 2000, TA Instruments. Heating rates of 10° C./min were used over a variety of temperature ranges for differential scanning calorimetry and thermogravimetric analysis. Samples ranging from <1-5 mg were prepared in crimped or open aluminum pans for DSC analysis.

The source of these data is US20150299182A1, “CRYSTALLINE FORMS OF (1S)-1-[5-(AMINO)-1,2,4-THIADIAZOL-3-YL]ETHANE-1,2-DIOL” (Array BioPharma Inc., priority 2012, published 2015).

Structures can show the parent of a compound that is named as a salt.

In the case of `Cc1ncccc1Oc1cc(Sc2ccccn2)cnc1Nc1nc([C@H](O)CO)ns1` [mono-hydrochloride salt Form C, (1S)-1-[5-({3-[(2-methylpyridin-3-yl)oxy]-5-(pyridin-2-ylsulfanyl)pyridin-2-yl}amino)-1,2,4-thiadiazol-3-yl]ethane-1,2-diol], the hygroscopicity result in series [1] is on record as “hygroscopic”. Also, the thermal stability entry in series [2] is given as “less preferred thermal stability characteristics”.
